These results are taken from ChEMBL document CHEMBL5291721, “A preclinical secondary pharmacology resource illuminates target-adverse drug reaction associations of marketed drugs” (Nat Commun, 2023).

Where “and” joins values, the source holds several entries; their conditions need not be identical. Equal entries are not always repeated. A value given as a limit tells only on which side of the number the result lay.

Broadly, the AC50 is the concentration at which the activity in the assay is half-maximal.

Assay [1] concerns the target T1, Muscarinic acetylcholine receptor M2 (Homo sapiens, UniProt P08172).
T1 sequence (P08172 whole entry): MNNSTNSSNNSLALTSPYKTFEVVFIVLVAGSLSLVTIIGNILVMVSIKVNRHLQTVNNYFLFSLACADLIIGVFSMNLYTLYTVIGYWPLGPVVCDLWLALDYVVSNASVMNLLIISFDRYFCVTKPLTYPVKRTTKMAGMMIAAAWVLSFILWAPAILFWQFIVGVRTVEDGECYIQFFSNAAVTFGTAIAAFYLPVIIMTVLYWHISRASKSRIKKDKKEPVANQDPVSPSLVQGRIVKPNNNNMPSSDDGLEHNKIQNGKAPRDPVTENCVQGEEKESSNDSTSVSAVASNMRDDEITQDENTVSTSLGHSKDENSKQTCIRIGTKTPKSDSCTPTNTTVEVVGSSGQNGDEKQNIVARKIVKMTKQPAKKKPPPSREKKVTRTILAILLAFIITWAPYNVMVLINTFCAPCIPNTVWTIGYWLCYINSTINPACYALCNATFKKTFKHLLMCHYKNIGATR

A further assay deals with T2, Estrogen receptor (Homo sapiens, UniProt P03372).
T2 sequence (P03372 whole entry): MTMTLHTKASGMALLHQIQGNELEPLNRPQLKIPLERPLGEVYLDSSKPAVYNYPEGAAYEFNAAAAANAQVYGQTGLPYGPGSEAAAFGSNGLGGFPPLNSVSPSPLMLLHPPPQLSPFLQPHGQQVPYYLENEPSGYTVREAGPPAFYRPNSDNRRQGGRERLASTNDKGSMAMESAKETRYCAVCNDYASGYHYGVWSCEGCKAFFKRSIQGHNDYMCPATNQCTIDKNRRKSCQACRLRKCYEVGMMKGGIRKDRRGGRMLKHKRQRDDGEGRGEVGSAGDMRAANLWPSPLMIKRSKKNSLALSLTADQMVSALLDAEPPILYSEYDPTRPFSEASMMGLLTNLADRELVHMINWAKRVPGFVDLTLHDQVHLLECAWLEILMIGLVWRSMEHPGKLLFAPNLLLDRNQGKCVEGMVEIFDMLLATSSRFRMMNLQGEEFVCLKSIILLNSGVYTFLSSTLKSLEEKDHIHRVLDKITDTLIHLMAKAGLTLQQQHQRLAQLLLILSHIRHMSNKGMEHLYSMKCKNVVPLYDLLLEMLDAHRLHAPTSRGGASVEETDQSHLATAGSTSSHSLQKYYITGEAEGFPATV

Another assay has as its target Prothrombin (Homo sapiens, UniProt P00734). It counts as functional.
Assay [2] concerns the target 5-hydroxytryptamine receptor 2B (Homo sapiens, UniProt P41595). It counts as functional, cell-based.
Assay [3] addresses Prostaglandin G/H synthase 1 (Homo sapiens, UniProt P23219). It counts as functional.
The target of assay [4] is Sodium-dependent noradrenaline transporter (Homo sapiens, UniProt P23975).
Sequence of Sodium-dependent noradrenaline transporter (P23975 whole entry): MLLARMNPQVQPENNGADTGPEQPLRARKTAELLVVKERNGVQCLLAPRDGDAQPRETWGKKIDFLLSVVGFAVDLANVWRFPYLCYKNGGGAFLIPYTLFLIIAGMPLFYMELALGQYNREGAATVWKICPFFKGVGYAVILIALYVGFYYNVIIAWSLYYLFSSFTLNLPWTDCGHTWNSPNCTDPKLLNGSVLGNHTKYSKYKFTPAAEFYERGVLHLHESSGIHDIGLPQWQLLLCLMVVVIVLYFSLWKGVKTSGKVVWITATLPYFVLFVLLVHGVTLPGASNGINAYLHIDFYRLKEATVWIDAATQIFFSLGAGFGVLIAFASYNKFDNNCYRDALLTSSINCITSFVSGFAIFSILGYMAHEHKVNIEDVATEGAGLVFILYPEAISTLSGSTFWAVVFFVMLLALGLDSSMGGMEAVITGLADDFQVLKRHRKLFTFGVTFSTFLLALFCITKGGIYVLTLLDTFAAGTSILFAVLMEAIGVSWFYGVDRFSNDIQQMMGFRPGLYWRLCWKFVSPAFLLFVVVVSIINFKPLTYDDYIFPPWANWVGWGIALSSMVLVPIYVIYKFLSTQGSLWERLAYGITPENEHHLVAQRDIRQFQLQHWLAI
For another assay, the target named is T3, Thromboxane A2 receptor (Homo sapiens, UniProt P21731).
T3 sequence (P21731 whole entry): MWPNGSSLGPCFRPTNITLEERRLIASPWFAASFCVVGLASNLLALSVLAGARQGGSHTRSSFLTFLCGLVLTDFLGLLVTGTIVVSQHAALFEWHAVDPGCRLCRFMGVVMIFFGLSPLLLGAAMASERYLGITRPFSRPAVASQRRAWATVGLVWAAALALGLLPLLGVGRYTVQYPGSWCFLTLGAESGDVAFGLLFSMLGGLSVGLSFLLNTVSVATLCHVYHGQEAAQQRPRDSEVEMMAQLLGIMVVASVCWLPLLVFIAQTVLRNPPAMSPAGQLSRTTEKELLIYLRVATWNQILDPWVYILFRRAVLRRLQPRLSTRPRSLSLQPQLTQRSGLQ
It counts as functional, cell-based.

Another assay deals with Vasopressin V2 receptor (Homo sapiens, UniProt P30518).
Sequence of Vasopressin V2 receptor (P30518 whole entry): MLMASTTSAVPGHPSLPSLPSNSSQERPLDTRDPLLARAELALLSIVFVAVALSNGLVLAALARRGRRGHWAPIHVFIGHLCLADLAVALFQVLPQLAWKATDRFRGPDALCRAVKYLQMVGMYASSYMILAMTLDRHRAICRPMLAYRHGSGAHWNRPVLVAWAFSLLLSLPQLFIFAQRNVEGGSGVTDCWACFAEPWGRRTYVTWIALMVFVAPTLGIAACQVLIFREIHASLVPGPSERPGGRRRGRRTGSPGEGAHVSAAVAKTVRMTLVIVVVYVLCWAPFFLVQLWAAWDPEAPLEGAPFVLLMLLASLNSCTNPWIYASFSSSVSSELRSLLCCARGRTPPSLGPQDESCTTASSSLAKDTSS
The target of assay [5] is Voltage-dependent L-type calcium channel subunit alpha-1C (Rattus norvegicus, UniProt P22002). It is filed as functional.
In assay [6] the target is T1, Muscarinic acetylcholine receptor M2. It is filed as functional, cell-based.
For assay [7], the target named is Muscarinic acetylcholine receptor M3 (Homo sapiens, UniProt P20309).
Sequence of Muscarinic acetylcholine receptor M3 (P20309 whole entry): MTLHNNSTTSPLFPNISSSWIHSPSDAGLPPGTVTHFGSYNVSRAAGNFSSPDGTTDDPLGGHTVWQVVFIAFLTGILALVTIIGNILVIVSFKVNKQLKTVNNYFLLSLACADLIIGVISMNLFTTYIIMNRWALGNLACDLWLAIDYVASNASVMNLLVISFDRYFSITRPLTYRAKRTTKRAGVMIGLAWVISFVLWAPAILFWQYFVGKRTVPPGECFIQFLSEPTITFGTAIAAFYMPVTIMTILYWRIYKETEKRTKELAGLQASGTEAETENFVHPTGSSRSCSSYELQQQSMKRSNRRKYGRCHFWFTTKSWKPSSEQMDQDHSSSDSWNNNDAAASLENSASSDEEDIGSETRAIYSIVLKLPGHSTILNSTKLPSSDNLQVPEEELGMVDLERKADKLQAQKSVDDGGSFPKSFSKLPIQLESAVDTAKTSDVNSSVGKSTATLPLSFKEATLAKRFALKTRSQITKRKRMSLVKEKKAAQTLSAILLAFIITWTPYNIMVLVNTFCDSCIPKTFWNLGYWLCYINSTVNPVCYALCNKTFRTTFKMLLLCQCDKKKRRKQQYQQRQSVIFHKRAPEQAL
Another assay deals with T4, Glucocorticoid receptor (Homo sapiens, UniProt P04150).
T4 sequence (P04150 whole entry): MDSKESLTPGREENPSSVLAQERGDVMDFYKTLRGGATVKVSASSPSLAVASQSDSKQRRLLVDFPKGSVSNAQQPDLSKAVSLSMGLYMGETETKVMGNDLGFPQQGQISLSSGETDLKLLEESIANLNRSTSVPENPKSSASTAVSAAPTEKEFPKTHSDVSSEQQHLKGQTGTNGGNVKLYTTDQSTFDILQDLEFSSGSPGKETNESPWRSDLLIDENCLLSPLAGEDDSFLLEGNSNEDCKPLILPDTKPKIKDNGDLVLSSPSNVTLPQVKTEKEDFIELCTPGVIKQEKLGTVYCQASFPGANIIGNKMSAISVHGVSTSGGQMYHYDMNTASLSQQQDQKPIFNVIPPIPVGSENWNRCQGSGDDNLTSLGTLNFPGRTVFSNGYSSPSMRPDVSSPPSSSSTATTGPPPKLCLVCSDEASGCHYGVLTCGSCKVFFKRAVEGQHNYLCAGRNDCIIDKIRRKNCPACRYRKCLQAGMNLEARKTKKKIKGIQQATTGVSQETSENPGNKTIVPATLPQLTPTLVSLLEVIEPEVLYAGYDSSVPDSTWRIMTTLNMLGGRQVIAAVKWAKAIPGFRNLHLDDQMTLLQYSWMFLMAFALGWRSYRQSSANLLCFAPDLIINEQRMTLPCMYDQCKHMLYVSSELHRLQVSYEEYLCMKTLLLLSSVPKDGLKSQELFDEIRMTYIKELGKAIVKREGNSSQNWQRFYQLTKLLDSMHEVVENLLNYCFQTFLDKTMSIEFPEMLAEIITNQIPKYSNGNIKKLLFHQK

In assay [8] the target is T5, Mu-type opioid receptor (Homo sapiens, UniProt P35372). Put plainly: biochemical. It counts as functional.
T5 sequence (P35372 whole entry): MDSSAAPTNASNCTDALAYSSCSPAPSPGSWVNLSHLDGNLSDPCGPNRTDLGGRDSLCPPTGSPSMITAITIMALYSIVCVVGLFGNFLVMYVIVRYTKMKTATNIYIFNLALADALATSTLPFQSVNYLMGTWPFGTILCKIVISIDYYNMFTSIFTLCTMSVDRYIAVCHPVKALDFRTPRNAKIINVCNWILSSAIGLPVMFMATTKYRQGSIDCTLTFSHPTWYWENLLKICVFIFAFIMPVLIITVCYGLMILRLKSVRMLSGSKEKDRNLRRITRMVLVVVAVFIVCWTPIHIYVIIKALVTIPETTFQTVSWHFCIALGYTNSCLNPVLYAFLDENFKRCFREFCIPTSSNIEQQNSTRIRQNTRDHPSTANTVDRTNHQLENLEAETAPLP
The target in assay [9] is T5, Mu-type opioid receptor.
Another assay addresses Histamine H3 receptor (Homo sapiens, UniProt Q9Y5N1).
Note: assay procedure not described here.

Sequence of 5-hydroxytryptamine receptor 2B (P41595 whole entry): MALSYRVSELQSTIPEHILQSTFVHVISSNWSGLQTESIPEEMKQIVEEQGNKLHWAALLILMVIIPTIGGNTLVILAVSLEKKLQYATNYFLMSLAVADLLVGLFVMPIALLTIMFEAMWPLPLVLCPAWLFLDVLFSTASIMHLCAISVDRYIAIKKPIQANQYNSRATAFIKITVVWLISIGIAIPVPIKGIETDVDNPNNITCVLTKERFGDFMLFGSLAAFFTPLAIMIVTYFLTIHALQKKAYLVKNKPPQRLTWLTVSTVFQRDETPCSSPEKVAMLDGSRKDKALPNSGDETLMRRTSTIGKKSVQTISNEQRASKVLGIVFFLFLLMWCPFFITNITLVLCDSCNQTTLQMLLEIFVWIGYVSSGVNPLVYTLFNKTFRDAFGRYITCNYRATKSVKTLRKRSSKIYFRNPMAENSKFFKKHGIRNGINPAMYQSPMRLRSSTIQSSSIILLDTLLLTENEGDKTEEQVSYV
Sequence of Prostaglandin G/H synthase 1 (P23219 whole entry): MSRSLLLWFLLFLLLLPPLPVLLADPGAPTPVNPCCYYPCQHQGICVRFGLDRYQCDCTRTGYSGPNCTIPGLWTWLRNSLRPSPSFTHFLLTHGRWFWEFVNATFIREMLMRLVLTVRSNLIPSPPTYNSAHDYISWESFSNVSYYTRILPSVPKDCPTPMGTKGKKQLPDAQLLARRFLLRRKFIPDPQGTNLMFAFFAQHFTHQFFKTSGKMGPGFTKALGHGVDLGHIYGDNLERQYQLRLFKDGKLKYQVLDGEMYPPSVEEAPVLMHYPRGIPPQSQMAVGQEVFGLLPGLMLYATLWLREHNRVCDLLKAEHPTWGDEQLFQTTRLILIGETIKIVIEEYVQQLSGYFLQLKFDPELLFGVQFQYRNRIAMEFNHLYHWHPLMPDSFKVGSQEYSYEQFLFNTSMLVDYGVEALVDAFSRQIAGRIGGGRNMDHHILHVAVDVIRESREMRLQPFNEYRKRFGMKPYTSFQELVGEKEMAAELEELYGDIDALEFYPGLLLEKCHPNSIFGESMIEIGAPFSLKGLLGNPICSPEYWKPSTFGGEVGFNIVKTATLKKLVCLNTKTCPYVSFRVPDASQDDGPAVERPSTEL
Sequence of Histamine H3 receptor (Q9Y5N1 whole entry): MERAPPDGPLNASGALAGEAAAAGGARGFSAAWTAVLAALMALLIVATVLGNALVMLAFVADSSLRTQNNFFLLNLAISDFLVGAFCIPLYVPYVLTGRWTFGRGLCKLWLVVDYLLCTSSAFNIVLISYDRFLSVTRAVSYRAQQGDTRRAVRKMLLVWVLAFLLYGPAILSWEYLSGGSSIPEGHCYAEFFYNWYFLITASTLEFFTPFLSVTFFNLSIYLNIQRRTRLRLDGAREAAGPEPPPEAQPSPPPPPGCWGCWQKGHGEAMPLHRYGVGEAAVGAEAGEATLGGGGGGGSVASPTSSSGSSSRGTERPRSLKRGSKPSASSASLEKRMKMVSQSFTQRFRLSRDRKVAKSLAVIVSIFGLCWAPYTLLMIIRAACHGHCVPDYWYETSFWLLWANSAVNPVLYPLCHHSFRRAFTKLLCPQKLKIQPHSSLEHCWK

For `O=C1c2c(O)c(=O)ccn2N([C@@H]2c3ccccc3SCc3c2ccc(F)c3F)[C@@H]2COCCN12` [BALOXAVIR], the concentration at half-maximal activity (AC50) (in assay [1]; at Estrogen receptor; at Prothrombin; in assay [2]; in [3]; in assay [4]) was greater than 30 µM each time. The AC50 at Thromboxane A2 receptor is greater than 30 µM.
As for `CC(=O)OCC(=O)[C@@]1(O)CC[C@H]2[C@@H]3CCC4=CC(=O)CC[C@]4(C)[C@H]3C(=O)C[C@@]21C` [CORTISONE ACETATE], the AC50 (on Estrogen receptor; at Prothrombin; in assay [2]) was greater than 30 µM each time.
Regarding `CCC(=O)c1c(O)cc(O)cc1O` [FLOPROPIONE], the half-maximal activity concentration (AC50) (in assay [1]; on Estrogen receptor; at Prothrombin; in assay [2]; in assay [3]; in assay [4]) was greater than 30 µM in each case. The same compound yielded an AC50 on Thromboxane A2 receptor greater than 30 µM.
For the compound `CN(C)C(=O)Oc1ccc[n+](C)c1` [PYRIDOSTIGMINE], the concentration at half-maximal activity (AC50) (in [1]; at Estrogen receptor; on Prothrombin; in assay [2]; in assay [3]; in assay [4]) was greater than 30 µM in each case. The AC50 on Thromboxane A2 receptor is greater than 30 µM.
Consider `CC(C)OC(=O)[C@H](C)N[P@](=O)(OC[C@H]1O[C@@H](n2ccc(=O)[nH]c2=O)[C@](C)(F)[C@@H]1O)Oc1ccccc1` [SOFOSBUVIR], for which the half-maximal activity concentration (AC50) (in assay [1]; at Estrogen receptor; on Prothrombin; in assay [2]; in assay [3]; in [4]) was greater than 30 µM each time. Besides, the concentration at half-maximal activity (AC50) on Thromboxane A2 receptor is greater than 30 µM.
Turning to `CO/N=C(\C(=O)N[C@@H]1C(=O)N2C(C(=O)[O-])=C(C[N+]3(C)CCCC3)CS[C@H]12)c1csc(N)n1`, the half-maximal activity concentration (AC50) was greater than 30 µM at Vasopressin V2 receptor; greater than 30 µM in assay [5]; greater than 300 µM in [6]; greater than 300 µM in assay [7]; greater than 30 µM at Glucocorticoid receptor; greater than 30 µM on Mu-type opioid receptor [8]. Besides, the AC50 on Mu-type opioid receptor [9] was greater than 300 µM; at Histamine H3 receptor, > 30 µM and 97 µM.
Turning to `CCOC(=O)c1ccc(O)cc1` [ETHYLPARABEN], the half-maximal activity concentration (AC50) (in assay [1]; on Estrogen receptor; at Prothrombin; in [2]; in assay [3]; in [4]) was greater than 30 µM each time. At Thromboxane A2 receptor, this compound registered a concentration at half-maximal activity (AC50) greater than 30 µM.
For the compound `CCO/N=C(\C(=O)N[C@@H]1C(=O)N2C(C(=O)[O-])=C(Sc3nc(-c4cc[n+](C)cc4)cs3)CS[C@H]12)c1nsc(N)n1` [CEFTAROLINE], the half-maximal activity concentration (AC50) (in assay [1]; at Estrogen receptor; on Prothrombin; in assay [2]; in [3]; in assay [4]) was greater than 30 µM in each case. This compound yielded an AC50 on Thromboxane A2 receptor greater than 30 µM.
`Cc1ccc(O)c2ncccc12` [TILIQUINOL]: the AC50 was greater than 30 µM in assay [1]; greater than 30 µM on Estrogen receptor; greater than 30 µM at Prothrombin; greater than 30 µM in assay [2]; greater than 30 µM in [3]; 6.22 µM in [4]. Besides, at Thromboxane A2 receptor, the AC50 is greater than 30 µM.
For `C#C[C@]1(O)CC[C@H]2[C@@H]3CCC4=CC(=O)CC[C@@H]4[C@H]3CC[C@@]21CC` [LEVONORGESTREL], the AC50 is greater than 30 µM in assay [1]; 8.65 µM on Estrogen receptor; greater than 30 µM on Prothrombin; greater than 30 µM in [2]; greater than 30 µM in assay [3]; greater than 30 µM in [4]. On Thromboxane A2 receptor, this compound had an AC50 greater than 30 µM.
For `CC(=O)Oc1c(C)cc(OCC(O)CNC(C)C)c(C)c1C` (centres undefined) [METIPRANOLOL], the AC50 (in assay [1]; at Estrogen receptor; at Prothrombin; in assay [2]; in assay [3]; in [4]) was greater than 30 µM each time. On Thromboxane A2 receptor, the AC50 is greater than 30 µM.
In the case of `Sc1ncnc2nc[nH]c12` [MERCAPTOPURINE ANHYDROUS], the AC50 is greater than 30 µM in assay [1]; greater than 30 µM on Estrogen receptor; greater than 30 µM on Prothrombin; greater than 30 µM in assay [2]; 14.6 µM in assay [3]; greater than 30 µM in assay [4]. At Thromboxane A2 receptor, the AC50 was greater than 30 µM.
On to `CC(O)CO` (centres undefined) [PROPYLENE GLYCOL], for which the half-maximal activity concentration (AC50) (in assay [1]; at Estrogen receptor; on Prothrombin; in assay [2]; in [3]; in assay [4]) was greater than 30 µM in each case. On Thromboxane A2 receptor, this compound yielded an AC50 greater than 30 µM.
Regarding `CC(C)NCC(O)COc1ccc(COCCOC(C)C)cc1` (centres undefined) [BISOPROLOL], the AC50 on Vasopressin V2 receptor is greater than 30 µM; in assay [5] it was greater than 10 µM; in assay [6], greater than 10 µM; in assay [7] it was greater than 30 µM; at Glucocorticoid receptor, greater than 30 µM; at Mu-type opioid receptor [8], greater than 30 µM. The AC50 at Mu-type opioid receptor [9] and at Histamine H3 receptor was greater than 10 µM each time.
With `Cc1cc2c(cc1CC(=O)c1sccc1S(=O)(=O)Nc1onc(C)c1Cl)OCO2` [SITAXENTAN], the half-maximal activity concentration (AC50) (in assay [1]; at Estrogen receptor; at Prothrombin; in [2]; in assay [3]; in [4]) was greater than 30 µM throughout. At Thromboxane A2 receptor, this compound gave a concentration at half-maximal activity (AC50) greater than 10 µM.
On to `C[N+]1(C)[C@@H]2C[C@@H](OC(=O)[C@H](CO)c3ccccc3)C[C@H]1[C@@H]1O[C@@H]12` [METHSCOPOLAMINE], for which the AC50 (on Estrogen receptor; on Prothrombin; in [2]; in assay [3]; in assay [4]; at Thromboxane A2 receptor) was greater than 30 µM each time.
